Data: publication PMC2936338 (Molecular Cancer, 2010)
Read-outs that look alike come from different tables or passages of the source.

Assays:
U87 glioblastoma cells = experiment: MTT cell viability assay; conditions: read-out: IC50 values (μM), cell viability
Procedure: (§2) Twenty-five μl of 3-(4,5-Dimethylthiazolyl)-2,5-diphenyltetrazolium bromide (MTT, Sigma) was added to each sample and incubated for 3.5 hours. After this, 100 μl of N, N-dimethylformamide (Sigma) solubilization solution was added to each well. […] Half-Maximal inhibitory concentrations (IC50) were determined using Sigma Plot 9.0 software (Systat Software Inc., San Jose, CA).

[1] = tested on: SNU-387 liver cancer cells; experiment: MTT cell viability assay; conditions: read-out: IC50 values (μM), cell viability
Procedure: as §2

[2] = tested on: ARH77 multiple myeloma cells; experiment: MTT cell viability assay; conditions: read-out: IC50 values (μM), cell viability
Procedure: as §2

[3] = tested on: HCT-116 colorectal cancer cells; experiment: MTT cell viability assay; conditions: read-out: IC50 values (μM), cell viability
Procedure: as §2

U251 glioblastoma cells = experiment: MTT cell viability assay; conditions: read-out: IC50 values (μM), cell viability
Procedure: as §2

[4] = tested on: SNU-398 liver cancer cells; experiment: MTT cell viability assay; conditions: read-out: IC50 values (μM), cell viability
Procedure: as §2

[5] = tested on: SW480 colorectal cancer cells; experiment: MTT cell viability assay; conditions: read-out: IC50 values (μM), cell viability
Procedure: as §2

Hep3B liver cancer cells = experiment: MTT cell viability assay; conditions: read-out: IC50 values (μM), cell viability
Procedure: as §2

[6] = tested on: U266 multiple myeloma cells; experiment: MTT cell viability assay; conditions: read-out: IC50 values (μM), cell viability
Procedure: as §2

[7] = tested on: SNU-449 liver cancer cells; experiment: MTT cell viability assay; conditions: read-out: IC50 values (μM), cell viability
Procedure: as §2

[8] = tested on: STAT3 phosphorylation induced by IL-6 in MDA-MB-453 breast cancer cells; experiment: IL-6 induction of STAT3 phosphorylation; type: cell-based, human; conditions: MDA-MB-453, pretreatment 20 μM, IL-6 50 ng/mL 30 min
Procedure: After stimulation with IL-6 (50 ng/mL, Sigma) or IFN-γ (50 ng/mL, Sigma) for 30 min, the cells were harvested and analyzed by western blot.

[9] = tested on: P-STAT3(Y705) in U266 cells; experiment: Western blot, U266 cells; type: cell-based, human; conditions: U266, positive controls
Procedure: (§1) Membranes were analyzed with enhanced chemiluminescence Plus reagents (GE Healthcare) and scanned with a Storm PhosphorImager (Amersham Pharmacia Biotech Inc.).

[10] = tested on: Cleaved Caspase-3 in U266 cells; experiment: Western blot, U266 cells; type: cell-based, human; conditions: U266, positive controls
Procedure: as §1

[11] = tested on: Cleaved Caspase-3 in HCT-116 cells; experiment: Western blot, HCT-116 cells; type: cell-based, human; conditions: HCT116, positive controls
Procedure: as §1

[12] = tested on: P-STAT3(Y705) in HCT-116 cells; experiment: Western blot, HCT-116 cells; type: cell-based, human; conditions: HCT116, positive controls
Procedure: as §1

SMILES | IC50 (U87 glioblastoma cells; U87 (G), MTT, 72 hours) [µM] | IC50 ([1]; SNU-387 (L), MTT, 72 hours) [µM] | IC50 ([2]; ARH77 (MM), MTT, 72 hours) [µM] | IC50 ([3]; HCT-116 (C), MTT, 72 hours) [µM] | IC50 (U251 glioblastoma cells; U251 (G), MTT, 72 hours) [µM] | IC50 ([4]; SNU-398 (L), MTT, 72 hours) [µM] | IC50 ([5]; SW480 (C), MTT, 72 hours) [µM] | IC50 (Hep3B liver cancer cells; Hep3B (L), MTT, 72 hours) [µM] | IC50 ([6]; U266 (MM), MTT, 72 hours) [µM] | IC50 ([7]; SNU-449 (L), MTT, 72 hours) [µM] | IC50 (U87 glioblastoma cells; Homo sapiens, 72 h) [µM] | IC50 ([1]; Homo sapiens, SNU-387, 72 h) [µM] | IC50 ([2]; Homo sapiens, ARH-77, 72 h) [µM] | IC50 ([3]; Homo sapiens, HCT-116, 72 h) [µM] | IC50 (U251 glioblastoma cells; Homo sapiens, U-251, 72 h) [µM] | IC50 ([4]; Homo sapiens, SNU-398, 72 h) [µM] | IC50 ([5]; Homo sapiens, SW480, 72 h) [µM] | IC50 (Hep3B liver cancer cells; Homo sapiens, Hep3B, 72 h) [µM] | IC50 ([6]; Homo sapiens, U-266, 72 h) [µM] | IC50 ([7]; Homo sapiens, SNU-449, 72 h) [µM] | other results
N#C/C(=C/c1ccc(O)c(O)c1)C(=O)NCc1ccccc1 [AG490] | > 100 | > 100 | 28.2 | 50.5 | 50.7 | 24.3 | 86.8 | > 100 | 9.5 | > 100 | – | – | – | – | – | – | – | – | – | – | –
COc1cc(/C=C/C(=O)CC(=O)/C=C/c2ccc(O)c(OC)c2)ccc1O [Curcumin] | – | – | – | – | – | – | – | – | – | – | 6.91 | 25.5 | 10.1 | 10.9 | 7.1 | 5.37 | 10.3 | 68.1 | 4.76 | 9.88 | inhibition of the induction of STAT3 phosphorylation by IL-6 [8]: not
Cc1ccc(S(=O)(=O)OCC(=O)Nc2ccc(C(=O)O)c(O)c2)cc1 [S3I-201] | 55.1 | > 100 | 35.2 | > 100 | 97.3 | 16.2 | > 100 | > 100 | 8.87 | > 100 | – | – | – | – | – | – | – | – | – | – | –
O=[N+]([O-])c1ccc2c(c1)S(=O)(=O)C=C2 [Stattic] | 0.73 | 4.3 | 2.57 | 0.96 | 0.84 | 3.23 | 0.43 | 17.8 | 0.99 | 2.5 | – | – | – | – | – | – | – | – | – | – | effect on STAT3 phosphorylation (in words) [9]: inhibit STAT3 phosphorylation; apoptosis indicated by cleavage of caspase-3 (in words) [10]: induce apoptosis; apoptosis indicated by cleavage of caspase-3 (in words) [11]: induce apoptosis; effect on STAT3 phosphorylation (in words) [12]: inhibit STAT3 phosphorylation
C[C@H](NC(=O)/C(C#N)=C/c1cccc(Br)n1)c1ccccc1 [WP1066] | – | – | – | – | – | – | – | – | – | – | 5.78 | 5.17 | 3.43 | 1.51 | 5.04 | 4.88 | 1.98 | 10.2 | 1.38 | 3.85 | effect on STAT3 phosphorylation (in words) [9]: inhibit STAT3 phosphorylation; apoptosis indicated by cleavage of caspase-3 (in words) [10]: induce apoptosis; apoptosis indicated by cleavage of caspase-3 (in words) [11]: induce apoptosis; effect on STAT3 phosphorylation (in words) [12]: inhibit STAT3 phosphorylation
